What was measured:
[1] = test system: HCV replicon in human hepatoma Huh-7 cell line; experiment: Anti-HCV replicon assay, EC50 (luciferase luminescence); format: cell-based; conditions: Hepatitis C virus, Huh-7, 72 h
Method in brief: (§1)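 Huh-7 cells carrying HCV replicon (6000/well) incubated with serially diluted compound, 0.5% DMSO final, 3 days at 37° C, 5% CO2. EC50 from luciferase luminescence after 30 min lysis/substrate at room temperature; CC50 from CellTiter-Glo luminescence after 10 min at room temperature.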

[2] = CC50 assay (CellTiter-Glo) in Huh-7 HCV replicon cells; format: cell-based; conditions: human
Method in brief: as §1

Row | SMILES | EC50 [1] [µM] | CC50 at 3 days ([2]; Table 2, 3 days incubation) [µM] | CC50 at 3 days ([2]; Table 1, 3 days incubation) [µM]
1 | Fc1ccc(-c2ccc3nc(NCc4ccc(-n5ccnc5)cc4)nc(NC4(C(F)(F)F)CC4)c3n2)cc1 [Example 126, N^2-(4-(1H-imidazol-1-yl)benzyl)-6-(4-fluorophenyl)-N^4-(1-(trifluoromethyl)cyclopropyl)pyrido[3,2-d] pyrimidine-2,4-diamine] | 0.25 to 2 | 1 to 10 | –
2 | CS(=O)(=O)Nc1cccc(CNc2nc(NC3(C(F)(F)F)CC3)c3nc(-c4ccc(F)cc4)ccc3n2)c1 [Example 87, N-(3-((6-(4-fluorophenyl)-4-(1-(trifluoromethyl)cyclopropyl-amino)pyrido[3,2-d]pyrimidin-2-ylamino)methyl)phenyl) methanesulfonamide] | 0.1 to 0.25 | > 10 | –
3 | C[C@@H](Nc1nc(OC2CC2)c2nc(-c3ccc(OC(F)F)c(S(C)(=O)=O)c3)ccc2n1)c1ccc(S(N)(=O)=O)cc1 [Example 185, 4-((R)-1-(4-cyclopropoxy-6-(4-(difluoromethoxy)-3-(methylsulfonyl)phenyl)pyrido [3,2-d]pyrimidin-2-ylamino)ethyl)benzenesulfonamide] | 0.1 to 0.25 | > 10 | –
4 | NS(=O)(=O)c1cc(CNc2nc(NCC(F)(F)F)c3nc(-c4ccc(F)cc4)ccc3n2)ccc1F [Example 7, 2-Fluoro-5-{[6-(4-fluoro-phenyl)-4-(2,2,2-trifluoro-ethylamino)-pyrido[3,2-d]pyrimidin-2-ylamino]-methyl}-benzenesulfonamide] | < 0.1 | – | 10 to 25
5 | C[C@@H](Nc1nc(NC2(C(F)(F)F)CCCCC2)c2nc(-c3ccc(F)cc3)ccc2n1)c1ccc(S(N)(=O)=O)cc1 [Example 67, (R)-4-(1-(6-(4-fluorophenyl)-4-(1-(trifluoromethyl)cyclohexylamino)pyrido[3,2-d]pyrimidin-2-ylamino)ethyl)benzenesulfonamide] | 0.25 to 2 | > 10 | –
6 | CS(=O)(=O)c1cc(-c2ccc3nc(NCc4ccc(-n5cncn5)cc4)nc(OC4CCC4)c3n2)ccc1OC(F)F [Example 204, N-(4-(1H-1,2,4-triazol-1-yl)benzyl)-4-cyclobutoxy-6-(4-(difluoromethoxy)-3-(methylsulfonyl)phenyl)pyrido [3,2-d]pyrimidin-2-amine] | < 0.1 | 1 to 10 | –
7 | CS(=O)(=O)c1cc(-c2ccc3nc(NCc4cc(F)cc(S(N)(=O)=O)c4)nc(NC4(C(F)(F)F)CC4)c3n2)ccc1Cl [Example 36, 3-((6-(4-chloro-3-(methylsulfonyl)phenyl)-4-(1-(trifluoromethyl)cyclopropyl-amino)pyrido[3,2-d]pyrimidin-2-ylamino)methyl)-5-fluorobenzenesulfonamide] | < 0.1 | 1 to 10 | –
8 | NS(=O)(=O)c1cc(Cl)cc(CNc2nc(NCC(F)(F)F)c3nc(C#CC4CC4)ccc3n2)c1 [Example 280, 3-chloro-5-((6-(2-cyclopropyl-ethynyl)-4-(2,2,2-trifluoro-ethylamino)pyrido[3,2-d]pyrimidin-2-ylamino)methyl) benzenesulfonamide] | < 0.1 | > 10 | –
9 | NS(=O)(=O)c1cc(CNc2nc(NCC(F)(F)F)c3nc(C#CC4CC4)ccc3n2)cc(C(F)(F)F)c1 [Example 278, 3-((6-(2-cyclopropylethynyl)-4-(2,2,2-trifluoroethylamino)pyrido[3,2-d]pyrimidin-2-ylamino)methyl)-5-(trifluoro-methyl)benzenesulfonamide] | 0.1 to 0.25 | > 10 | –
10 | C#Cc1ccc2nc(N[C@H](C)c3ccc(S(N)(=O)=O)cc3)nc(NCC(F)(F)F)c2n1 [Example 284, (R)-4-(1-(6-ethynyl-4-(2,2,2-trifluoroethylamino)pyrido [3,2-d]pyrimidin-2-ylamino)ethyl)benzenesulfonamide] | < 0.1 | > 10 | –
11 | Cc1ccc(-c2ccc3nc(NCc4ccc(S(N)(=O)=O)cc4)nc(NC4(C(F)(F)F)CC4)c3n2)cc1S(C)(=O)=O [Example 29, 4-{[6-(3-methanesulfonyl-4-methylphenyl)-4-(1-trifluoromethyl-cyclopropylamino)-pyrido[3,2-d]pyrimidin-2-ylamino]-methyl}-benzenesulfonamide] | < 0.1 | 1 to 10 | –
12 | c1ncn(-c2ccc(CNc3nc(OC4CC4)c4nc(-c5cnc(OC6CC6)nc5)ccc4n3)cc2)n1 [Example 254, N-(4-(1H-1,2,4-triazol-1-yl)benzyl)-4-cyclopropoxy-6-(2-cyclopropoxypyrimidin-5-yl)pyrido[3,2-d]pyrimidin-2-amine] | < 0.1 | > 10 | –
13 | COc1ccc(-c2ccc3nc(NCc4ccc(F)c(F)c4)nc(NC4(C(F)(F)F)CC4)c3n2)cc1S(C)(=O)=O [Example 44, N^2-(3,4-difluorobenzyl)-6-(4-methoxy-3-(methylsulfonyl)phenyl)-N^4-(1-(trifluoromethyl)cyclopropyl)pyrido[3,2-d] pyrimidine-2,4-diamine] | < 0.1 | 1 to 10 | –
14 | CCOc1nc(NCc2ccc(-n3cncn3)cc2)nc2ccc(-c3cccc(S(C)(=O)=O)c3)nc12 [Example 190, N-(4-(1H-1,2,4-triazol-1-yl)benzyl)-4-ethoxy-6-(3-(methylsulfonyl)phenyl)pyrido [3,2-d]pyrimidin-2-amine] | < 0.1 | > 10 | –
15 | CC1(Oc2nc(NCc3ccc(-n4cncn4)cc3)nc3ccc(-c4ccc(OC(F)F)c(S(C)(=O)=O)c4)nc23)CC1 [Example 191, N-(4-(1H-1,2,4-triazol-1-yl)benzyl)-6-(4-(difluoro-methoxy)-3-(methylsulfonyl)phenyl)-4-(1-methylcyclo-propoxy)pyrido[3,2-d] pyrimidin-2-amine] | < 0.1 | > 10 | –
16 | COc1ccc(-c2ccc3nc(N[C@H](C)c4ccc(-n5cncn5)cc4)nc(NCC(F)(F)F)c3n2)cc1S(C)(=O)=O [Example 150, N^2-((R)-1-(4-(1H-1,2,4-triazol-1-yl)phenyl)ethyl)-6-(4-methoxy-3-(methylsulfonyl)phenyl)-N^4-(2,2,2-trifluoroethyl) pyrido[3,2-d]pyrimidine-2,4-diamine] | < 0.1 | 1 to 10 | –
17 | C#Cc1ccc2nc(NCc3ccc(S(N)(=O)=O)cc3)nc(NCC(F)(F)F)c2n1 [Example 288, 4-((6-ethynyl-4-(2,2,2-trifluoroethylamino)pyrido [3,2-d]pyrimidin-2-ylamino)methyl)benzenesulfonamide] | < 0.1 | 1 to 10 | –
18 | CC1(Oc2nc(NCc3ccc(-n4cncn4)cc3)nc3ccc(-c4cnc(OC5CC5)nc4)nc23)CC1 [Example 257, N-(4-(1H-1,2,4-triazol-1-yl)benzyl)-6-(2-cyclopropoxy-pyrimidin-5-yl)-4-(1-methyl-cyclopropoxy)pyrido[3,2-d] pyrimidin-2-amine] | < 0.1 | 1 to 10 | –
19 | NS(=O)(=O)c1cc(F)cc(CNc2nc(NC3(C(F)(F)F)CC3)c3nc(-c4ccc(F)nc4)ccc3n2)c1 [Example 77, 3-fluoro-5-((6-(6-fluoropyridin-3-yl)-4-(1-(trifluoromethyl)cyclopropylamino)pyrido[3,2-d]pyrimidin-2-ylamino)methyl) benzenesulfonamide] | < 0.1 | > 10 | –
20 | CC(C)Oc1nc(NCc2ccc(-n3cncn3)cc2)nc2ccc(C#CC3CC3)nc12 [Example 308, N-(4-(1H-1,2,4-triazol-1-yl)benzyl)-6-(2-cyclopropyl-ethynyl)-4-isopropoxypyrido [3,2-d]pyrimidin-2-amine] | 0.25 to 2 | > 10 | –
21 | NS(=O)(=O)c1ccc(CNc2nc(NC3(C(F)(F)F)CC3)c3nc(C#CC4CC4)ccc3n2)cc1 [Example 92, 4-((6-(2-cyclopropylethynyl)-4-(1-(trifluoromethyl)cyclopropyl-amino)pyrido[3,2-d]pyrimidin-2-ylamino)methyl)benzene-sulfonamide] | < 0.1 | 1 to 10 | –
22 | CS(=O)(=O)c1cccc(-c2ccc3nc(NCc4ccc(S(N)(=O)=O)cc4)nc(NCC(F)(F)F)c3n2)c1 [Example 15, 4-{[6-(3-Methanesulfonyl-phenyl)-4-(2,2,2-trifluoro-ethylamino)-pyrido[3,2-d]pyrimidin-2-ylamino]-methyl}-benzenesulfonamide] | < 0.1 | – | > 25
23 | CCOc1ccc(-c2ccc3nc(NCc4ccc(-n5cncn5)cc4)nc(NCC(F)(F)F)c3n2)cc1S(N)(=O)=O [Example 243, 5-(2-(4-(1H-1,2,4-triazol-1-yl)benzylamino)-4-(2,2,2-trifluoroethylamino)pyrido [3,2-d]pyrimidin-6-yl)-2-ethoxybenzenesulfonamide] | < 0.1 | > 10 | –
24 | COCCNc1nc(NCC(F)(F)F)c2nc(-c3ccc(OC)c(S(C)(=O)=O)c3)ccc2n1 [Example 153, 6-(4-methoxy-3-(methylsulfonyl)phenyl)-N^2-(2-methoxyethyl)-N^4-(2,2,2-trifluoroethyl)pyrido[3,2-d] pyrimidine-2,4-diamine] | < 0.1 | > 10 | –
25 | COc1ccc(-c2ccc3nc(NCc4ccc(S(N)(=O)=O)c(Cl)c4)nc(NCC(F)(F)F)c3n2)cc1S(C)(=O)=O [Example 147, 2-chloro-4-((6-(4-methoxy-3-(methylsulfonyl)phenyl)-4-(2,2,2-trifluoroethylamino)pyrido[3,2-d]pyrimidin-2-ylamino)methyl)benzene-sulfonamide] | < 0.1 | > 10 | –
26 | CS(=O)(=O)c1cccc(CNc2nc(NC3(C(F)(F)F)CC3)c3nc(-c4ccc(F)cc4C#N)ccc3n2)c1 [Example 104, 2-(2-(3-(methylsulfonyl)benzylamino)-4-(1-(trifluoromethyl)cyclopropyl-amino)pyrido[3,2-d]pyrimidin-6-yl)-5-fluorobenzonitrile] | 0.1 to 0.25 | > 10 | –
